From patent US12110276B2 (Genentech, Inc., priority 2021, dated 2024)
Read-outs that look alike come from different tables or passages of the source.

Experiments:
TEAD1 = TEAD1 (Homo sapiens (Human), UniProt P28347); test: TR-FRET lipid pocket probe competition assay (Lipid HTRF), TEAD1; format: binding;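 note: His-tagged TEAD1 with biotinylated probe, detected via Europium anti-His and XL665 streptavidin, probe displacement lowers TR-FRET signal, IC50 from four-parameter nonlinear fit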
TEAD3 = TEAD3 (Homo sapiens (Human), UniProt Q99594); test: TR-FRET lipid pocket probe competition assay (Lipid HTRF), TEAD3; format: binding
TEAD3, sequence (Q99594 whole entry, species assumed): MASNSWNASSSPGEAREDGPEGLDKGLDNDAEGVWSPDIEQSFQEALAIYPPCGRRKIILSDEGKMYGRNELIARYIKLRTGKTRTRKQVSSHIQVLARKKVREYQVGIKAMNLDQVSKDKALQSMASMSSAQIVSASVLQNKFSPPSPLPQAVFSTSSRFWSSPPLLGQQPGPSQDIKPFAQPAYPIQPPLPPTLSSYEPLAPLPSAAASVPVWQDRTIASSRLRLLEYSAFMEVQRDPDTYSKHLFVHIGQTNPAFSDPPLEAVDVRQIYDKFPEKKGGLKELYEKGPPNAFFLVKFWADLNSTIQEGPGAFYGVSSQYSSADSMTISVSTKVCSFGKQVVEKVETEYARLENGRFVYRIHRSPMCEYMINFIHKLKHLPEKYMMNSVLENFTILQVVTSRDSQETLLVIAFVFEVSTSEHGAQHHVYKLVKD

TEAD4 = TEAD4 (Homo sapiens (Human), UniProt Q15561); test: TR-FRET lipid pocket probe competition assay (Lipid HTRF), TEAD4; format: binding;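 note: His-tagged TEAD4 with biotinylated lipid-pocket probe, read by Europium anti-His and XL665 streptavidin, where probe displacement lowers the TR-FRET signal, IC50 from a four-parameter fit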
TEAD4, sequence (Q15561 whole entry, species assumed): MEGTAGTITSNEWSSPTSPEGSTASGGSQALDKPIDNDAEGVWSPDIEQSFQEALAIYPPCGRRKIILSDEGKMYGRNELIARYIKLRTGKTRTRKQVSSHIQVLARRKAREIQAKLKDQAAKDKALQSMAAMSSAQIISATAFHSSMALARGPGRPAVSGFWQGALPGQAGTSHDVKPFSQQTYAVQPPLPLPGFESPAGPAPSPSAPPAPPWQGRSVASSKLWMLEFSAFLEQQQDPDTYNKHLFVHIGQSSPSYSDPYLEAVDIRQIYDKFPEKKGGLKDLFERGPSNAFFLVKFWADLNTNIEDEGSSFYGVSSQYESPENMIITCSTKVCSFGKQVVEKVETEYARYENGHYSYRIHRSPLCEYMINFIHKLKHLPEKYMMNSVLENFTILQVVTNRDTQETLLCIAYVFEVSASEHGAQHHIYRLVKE
Method: His-tagged TEAD proteins are pre-incubated with TEAD project compounds for 30 minutes or 4 hours at room temperature. Biotinylated lipid pocket probes are then added to the TEAD/Compound mixture and incubated for 60 minutes at room temperature. The lipid pocket probe competes with the test compound for the TEAD lipid pocket until equilibrium is reached. After 60 minutes, Europium labelled anti-His (Perkin Elmer #AD0110) and XL665 labelled streptavidin (CIS Bio 610SAXAC) are added to the TEAD/test compound/lipid pocket mixture and incubated for 30 minutes or 4 hours. […] If a TEAD lipid pocket binder such as binds and displaces the lipid pocket probe, the disruption of the TEAD:probe interaction results in a decrease in TR-FRET signal. The potency of compounds as TEAD lipid pocket binders is determined by IC50 value generated using a non-linear 4 parameter curve fit.

TEAD2 [1] = biological target: T1, TEAD2 (Homo sapiens (Human), UniProt Q15562); test: biochemical;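 note: TR-FRET competition assay with His-tagged TEAD protein and a biotinylated lipid pocket probe, compound pre-incubated 30 min or 4 h at room temperature, displacement lowers signal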
T1 sequence (Q15562 whole entry, species assumed): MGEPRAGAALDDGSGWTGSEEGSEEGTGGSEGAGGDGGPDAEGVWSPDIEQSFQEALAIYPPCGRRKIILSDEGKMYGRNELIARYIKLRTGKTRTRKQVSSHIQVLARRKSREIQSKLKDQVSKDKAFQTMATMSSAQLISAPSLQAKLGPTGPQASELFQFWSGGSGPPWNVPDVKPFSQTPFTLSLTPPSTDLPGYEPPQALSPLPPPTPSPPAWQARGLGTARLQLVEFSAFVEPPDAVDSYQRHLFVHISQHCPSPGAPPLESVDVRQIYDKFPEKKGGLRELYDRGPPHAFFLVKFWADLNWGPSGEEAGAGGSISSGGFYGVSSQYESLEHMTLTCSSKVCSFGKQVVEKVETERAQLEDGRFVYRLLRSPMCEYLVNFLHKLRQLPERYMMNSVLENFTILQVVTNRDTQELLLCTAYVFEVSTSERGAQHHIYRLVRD
Method: (§1) His-tagged TEAD proteins are pre-incubated with TEAD project compounds for 30 minutes or 4 hours at room temperature. Biotinylated lipid pocket probes are then added to the TEAD/Compound mixture and incubated for 60 minutes at room temperature. The lipid pocket probe competes with the test compound for the TEAD lipid pocket until equilibrium is reached. After 60 minutes, Europium labelled anti-His (Perkin Elmer #AD0110) and XL665 labelled streptavidin (CIS Bio 610SAXAC) are added to the TEAD/test compound/lipid pocket mixture and incubated for 30 minutes or 4 hours. TR-FRET values are then measured using an EnVision multi-label plate reader (Perkin Elmer Cat #2104-0010A.) If the lipid pocket probe binds to TEAD as expected, a TR-FRET signal results from the proximity of anti-His Eu and XL665. If a TEAD lipid pocket binder such as binds and displaces the lipid pocket probe, the disruption of the TEAD:probe interaction results in a decrease in TR-FRET signal. The potency of compounds as TEAD lipid pocket binders is determined by IC50 value generated using a non-linear 4 parameter curve fit.

hNav1.5 sodium channels = hNav1.5 sodium channels (Homo sapiens (Human), UniProt Q14524); test: Cloned hNav1.5 sodium channels expressed in CHO cells, QPatch HT automated patch clamp; format: cell-based
hNav1.5 sodium channels, sequence (Q14524 whole entry): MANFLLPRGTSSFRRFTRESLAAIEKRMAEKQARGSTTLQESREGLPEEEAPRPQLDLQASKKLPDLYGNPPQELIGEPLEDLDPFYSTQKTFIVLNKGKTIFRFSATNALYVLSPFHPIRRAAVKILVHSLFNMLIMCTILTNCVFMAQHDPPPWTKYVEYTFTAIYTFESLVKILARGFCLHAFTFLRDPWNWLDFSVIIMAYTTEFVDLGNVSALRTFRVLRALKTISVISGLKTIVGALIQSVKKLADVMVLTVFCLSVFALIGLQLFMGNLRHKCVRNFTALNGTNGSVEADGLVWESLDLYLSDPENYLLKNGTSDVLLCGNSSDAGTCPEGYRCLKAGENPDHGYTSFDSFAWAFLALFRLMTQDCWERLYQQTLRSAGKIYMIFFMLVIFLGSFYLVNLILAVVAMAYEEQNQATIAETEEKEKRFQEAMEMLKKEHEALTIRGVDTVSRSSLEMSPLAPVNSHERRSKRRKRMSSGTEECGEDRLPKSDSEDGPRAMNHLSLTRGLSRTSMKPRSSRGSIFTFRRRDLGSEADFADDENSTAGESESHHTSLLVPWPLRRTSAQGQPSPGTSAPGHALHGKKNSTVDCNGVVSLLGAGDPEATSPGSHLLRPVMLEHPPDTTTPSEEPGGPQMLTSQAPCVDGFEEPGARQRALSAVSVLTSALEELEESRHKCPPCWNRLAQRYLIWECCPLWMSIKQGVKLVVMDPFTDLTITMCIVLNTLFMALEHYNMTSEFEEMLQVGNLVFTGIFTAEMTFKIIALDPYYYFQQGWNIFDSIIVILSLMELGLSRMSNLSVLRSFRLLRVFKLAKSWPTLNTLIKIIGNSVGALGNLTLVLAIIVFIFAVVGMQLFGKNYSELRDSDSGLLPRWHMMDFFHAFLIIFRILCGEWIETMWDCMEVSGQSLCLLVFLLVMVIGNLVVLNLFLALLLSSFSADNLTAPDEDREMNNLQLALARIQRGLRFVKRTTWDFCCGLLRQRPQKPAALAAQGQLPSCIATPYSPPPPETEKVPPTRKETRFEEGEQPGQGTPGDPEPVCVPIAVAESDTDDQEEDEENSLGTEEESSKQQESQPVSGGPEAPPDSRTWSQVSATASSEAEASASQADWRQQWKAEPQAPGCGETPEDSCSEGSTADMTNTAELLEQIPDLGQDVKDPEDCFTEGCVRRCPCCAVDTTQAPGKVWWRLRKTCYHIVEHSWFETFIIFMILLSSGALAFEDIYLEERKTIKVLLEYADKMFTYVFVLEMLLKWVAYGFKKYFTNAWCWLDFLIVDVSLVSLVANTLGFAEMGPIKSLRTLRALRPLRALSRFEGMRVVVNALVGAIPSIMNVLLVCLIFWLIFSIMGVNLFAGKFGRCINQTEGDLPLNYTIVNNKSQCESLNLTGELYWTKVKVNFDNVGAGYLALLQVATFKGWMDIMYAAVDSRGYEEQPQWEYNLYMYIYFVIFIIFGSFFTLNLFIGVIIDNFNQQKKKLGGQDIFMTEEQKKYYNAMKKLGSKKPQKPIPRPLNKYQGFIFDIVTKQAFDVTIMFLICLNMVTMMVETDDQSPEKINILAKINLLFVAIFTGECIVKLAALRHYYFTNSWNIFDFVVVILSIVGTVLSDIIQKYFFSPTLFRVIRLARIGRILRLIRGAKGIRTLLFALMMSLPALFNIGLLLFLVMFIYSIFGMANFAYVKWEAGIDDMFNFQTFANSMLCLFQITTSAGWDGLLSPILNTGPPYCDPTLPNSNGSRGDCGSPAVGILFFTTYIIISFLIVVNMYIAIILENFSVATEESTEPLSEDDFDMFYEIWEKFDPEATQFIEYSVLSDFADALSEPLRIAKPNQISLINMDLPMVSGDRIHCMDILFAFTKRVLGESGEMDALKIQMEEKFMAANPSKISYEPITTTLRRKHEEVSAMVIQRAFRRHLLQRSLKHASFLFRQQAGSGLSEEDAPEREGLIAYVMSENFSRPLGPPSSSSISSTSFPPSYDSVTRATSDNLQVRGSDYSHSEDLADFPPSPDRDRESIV
Method: Example 183 A: Effects of Test Article on Cloned hNav1.5 Sodium Channels Expressed in Mammalian Cells
Chinese hamster ovary (CHO) cells expressing cloned hNav1.5 sodium channels (hNav1.5, encoded by the human SCNSA gene) are responsible for INa sodium channel current. From a 10 mM stock solution, test article was diluted to make a 1 mM, 0.1 mM, and 0.01 mM sub stock, which were stored frozen. All chemicals used in solution preparation were purchased from Sigma-Aldrich (St. Louis, MO) and were of ACS reagent grade purity or higher. Stock solutions of the test articles and the positive control were prepared in dimethyl sulfoxide (DMSO) and stored frozen. Test article and positive control concentrations were prepared fresh daily by diluting stock solutions into a HEPES-buffered physiological saline (HB-PS) solution (composition in mM): NaCl, 137; KCl, 4.0; CaCl2, 1.8; MgCl2, 1; HEPES, 10; Glucose, 10; pH adjusted to 7.4 with NaOH (refrigerated until use). […] Each test article formulation was sonicated (Model 2510/5510, Branson Ultrasonics, Danbury, CT) at room temperature for 20 minutes to facilitate dissolution. In preparation for the recording session, a glass-lined 96-well compound plate was loaded with the appropriate amounts of test and control solutions and placed in the plate well of the QPatch HT® (Sophion Bioscience A/S, Denmark), an automatic parallel patch clamp system. […]

TEAD2 [2] = biological target: T1, TEAD2
Method: as §1

[3] = 4 hours pre-incubation, read-out: Lipid HTRF TEAD1 IC50
[4] = 4 hours pre-incubation, read-out: Lipid HTRF TEAD3 IC50
[5] = 4 hours pre-incubation, read-out: Lipid HTRF TEAD4 IC50

TEAD1, sequence (P28347 whole entry, species assumed): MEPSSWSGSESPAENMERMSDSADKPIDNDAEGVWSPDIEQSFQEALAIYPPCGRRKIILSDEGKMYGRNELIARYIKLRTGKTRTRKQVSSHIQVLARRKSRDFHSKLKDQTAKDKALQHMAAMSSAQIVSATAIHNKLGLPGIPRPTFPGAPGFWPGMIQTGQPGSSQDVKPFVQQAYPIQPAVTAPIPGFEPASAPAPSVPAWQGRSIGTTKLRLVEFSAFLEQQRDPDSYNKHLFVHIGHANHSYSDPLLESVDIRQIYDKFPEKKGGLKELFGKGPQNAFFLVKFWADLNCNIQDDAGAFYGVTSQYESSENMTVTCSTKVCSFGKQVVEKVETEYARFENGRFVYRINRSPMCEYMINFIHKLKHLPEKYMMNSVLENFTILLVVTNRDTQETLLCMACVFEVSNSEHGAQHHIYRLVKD

Compound | IC50 (TEAD1; [3]) [µM] | IC50 (TEAD3; [4]) [µM] | IC50 (TEAD4; [5]) [µM] | IC50 (TEAD2 [1]) [µM] | NaV1.5 (Phasic) 10 uM concentration % inhibition (hNav1.5 sodium channels; 10 uM, mean % inhibition, n>=2 cells) [%] | IC50 (TEAD2 [2]) [µM] | IC50 (hNav1.5 sodium channels; 0.01-100 uM, read-out: NaV1.5 (Phasic) IC50) [µM] | IC50 (TEAD1) [µM] | IC50 (TEAD3) [µM] | IC50 (TEAD4) [µM]
C=CC(=O)NCc1nn(-c2cccc(OC(F)(F)F)c2)c2nccc([C@H](O)CO)c12 (stereo in doubt) [Compound 73, N-((4-(1,2-dihydroxyethyl)-1-(3-(trifluoromethoxy)phenyl)-1H-pyrazolo[3,4-b]pyridin-3-yl)methyl)acrylamide] | 0.87 | 0.29 | 0.033 | 0.43 |  |  |  |  |  | 
C=CC(=O)NCc1nn(-c2ccc(C(F)(F)F)cc2)c2nccc([C@@H](O)CO)c12 (stereo in doubt) [Compound 88, N-((4-(1,2-dihydroxyethyl)-1-(4-(trifluoromethyl)phenyl)-1H-pyrazolo[3,4-b]pyridin-3-yl)methyl)acrylamide] | 0.08 | 2.1 | 0.043 | 0.15 |  |  |  |  |  | 
C=CC(=O)NCc1nn(-c2ccc(C(F)(F)F)cc2)c2nccc([C@H](O)CO)c12 (stereo in doubt) [Compound 100, N-((4-(1,2-dihydroxyethyl)-1-(4-(trifluoromethyl)phenyl)-1H-pyrazolo[3,4-b]pyridin-3-yl)methyl)acrylamide] | 0.48 | 0.72 | 0.1 | 0.52 |  |  |  |  |  | 
C=CC(=O)NCc1nn(-c2ccc(OC(F)(F)F)cc2)c2nccc([C@H](O)CO)c12 [Compound 17, N-[[4-[(1S)-1,2-dihydroxyethyl]-1-[4-(trifluoromethoxy)phenyl]pyrazolo[3,4-b]pyridin-3-yl]methyl]prop-2-enamide] | 0.035 | 0.77 | 0.02 |  | 32.1 | 0.032 |  |  |  | 
C=C(F)C(=O)N1CC(c2nn(-c3ccc(OC(F)(F)F)cc3)c3nccc(CO)c23)C1 [Compound 20, 2-fluoro-1-[3-[4-(hydroxymethyl)-1-[4-(trifluoromethoxy)phenyl]pyrazolo[3,4-b]pyridin-3-yl]azetidin-1-yl]prop-2-en-1-one] |  |  |  |  |  |  | 42.1 |  |  | 
[2H]C([2H])=C([2H])C(=O)NCc1nn(-c2ccc(OC(F)(F)F)cc2)c2nccc([C@H](O)CO)c12 [Compound 154, (S)-N-((4-(1,2-Dihydroxyethyl)-1-(4-(trifluoromethoxy)phenyl)-1H-pyrazolo[3,4-b]pyridin-3-yl)methyl)acrylamide-2,3,3-d3] |  |  |  | 0.036 |  |  |  | 0.044 | 1.2 | 0.022

Continued, in another order:

IC50 (TEAD1; [3]) [µM] | IC50 (TEAD3; [4]) [µM] | IC50 (TEAD4; [5]) [µM] | IC50 (TEAD2 [1]) [µM] | Compound | NaV1.5 (Phasic) 10 uM concentration % inhibition (hNav1.5 sodium channels; 10 uM, mean % inhibition, n>=2 cells) [%] | IC50 (TEAD2 [2]) [µM] | IC50 (hNav1.5 sodium channels; 0.01-100 uM, read-out: NaV1.5 (Phasic) IC50) [µM] | IC50 (TEAD1) [µM] | IC50 (TEAD3) [µM] | IC50 (TEAD4) [µM]
0.29 | 2.9 | 0.03 | 0.089 | C=CC(=O)NCc1nn(-c2cccc(OC(F)(F)F)c2)c2nccc([C@@H](O)CO)c12 (stereo in doubt) [Compound 131, N-((4-(1,2-dihydroxyethyl)-1-(3-(trifluoromethoxy)phenyl)-1H-pyrazolo[3,4-b]pyridin-3-yl)methyl)acrylamide] |  |  |  |  |  | 
0.093 | 5.7 | 0.065 | 0.04 | C=CC(=O)NCc1nn(-c2ccc(OC(F)(F)F)cc2)c2nccc(N3CCOCC3)c12 [Compound 77, N-((4-morpholino-1-(4-(trifluoromethoxy)phenyl)-1H-pyrazolo[3,4-b]pyridin-3-yl)methyl)acrylamide] |  |  |  |  |  | 
0.016 | 0.29 | 0.028 | 0.062 | [2H]C([2H])=C([2H])C(=O)NCc1nn(-c2ccc(OC(F)(F)F)cc2)c2nccc(CO)c12 [Compound 111, 2,3,3-Trideuterio-N-[[4-(hydroxymethyl)-1-[4-(trifluoromethoxy)phenyl]pyrazolo[3,4-b]pyridin-3-yl]methyl]prop-2-enamide] |  |  |  |  |  | 
